Key:
[1] = molecular target: death associated protein kinase (DAPK) (Homo sapiens, UniProt P53355); assay: Enzyme assay, DAPK; format: biochemical; settings: read-out: DAPK IC50
Procedure: Therefore, compound MW01-026Z was selected as a starting point for variations on component A (Table 6). […] However, none of the A variations appeared to improve the activity and selectivity profile of CompoundMW01-026Z. (For purposes of illustration, only, component G was maintained throughout as an acyl moiety, while component R2 was varied as shown. All such compositions are available using the synthetic techniques described herein. Enzyme assays were conducted per procedures described elsewhere herein.) A more comprehensive structure activity relationship is summarized in Table 7, below.
With reference to the compositions of Table 3 and the enzyme assay techniques described elsewhere herein, Table 7 provides structural activity relationships observed, in accordance with this invention.

cell culture = assay: Cytotoxicity in cell culture; format: cell-based; settings: over the entire dose range of inhibitor
Excerpt: The inhibition of iNOS and IL-1β production by MW01-070C, however, is not limited to LPS stimulation. […] The rationale for examination of Aβ stimulation is its involvement as an initiating event in models of AD initiation and progression. The stimulation by Aβ is seen (FIG. 6) with preparations of the Aβ peptide (see Experimental Procedures) that are known to have neurotoxic activity [Hu, J., Akama, K. T., Krafft, G. A., Chromy, B. A., and Van Eldik, L. J. (1998) Brain Res. 785, 195-206; Lambert, M. P. Barlow, A. K., Chromy, B. A., Edwards, C., Freed, R., Liosatos, M., Morgan, T. E., Rozovsky, I., Trommer, B., Viola, K. L., Wals, P., Zhang, C., Finch, C. E., Kraffk, G. A., and Klein, W. L. (1998) Proc. Natl. Acad. Sci. USA 95, 6448-6453]. The rationale for examination of S100 stimulation is its presence as an astrocyte protein that can function as an autocrine and paracrine cytokine, and its increased production in AD and other neuroinflammatory related disorders [Griffin, W. S. T., Stanley, L. C., Ling, C., White, L., MacLeod, V., Perrot, L. J., White, C. L., III, and Araoz, C. (1989) Proc. Natl. Acad. Sci. USA 86, 7611-7615; Hu, J., Castets, F., Guevara, J. L., and Van Eldik, L. J. (1996) J. Biol. Chem. 271, 2543-2547; Donato, R. (1999) Biochim. Biophys. Acta 1450, 191-231; Van Eldik, L. J., and Griffin, W. S. T. (1994) Biochim. Biophys. Acta 1223, 398-403]. […]

death associated protein kinase (DAPK), sequence (P53355 whole entry, species assumed): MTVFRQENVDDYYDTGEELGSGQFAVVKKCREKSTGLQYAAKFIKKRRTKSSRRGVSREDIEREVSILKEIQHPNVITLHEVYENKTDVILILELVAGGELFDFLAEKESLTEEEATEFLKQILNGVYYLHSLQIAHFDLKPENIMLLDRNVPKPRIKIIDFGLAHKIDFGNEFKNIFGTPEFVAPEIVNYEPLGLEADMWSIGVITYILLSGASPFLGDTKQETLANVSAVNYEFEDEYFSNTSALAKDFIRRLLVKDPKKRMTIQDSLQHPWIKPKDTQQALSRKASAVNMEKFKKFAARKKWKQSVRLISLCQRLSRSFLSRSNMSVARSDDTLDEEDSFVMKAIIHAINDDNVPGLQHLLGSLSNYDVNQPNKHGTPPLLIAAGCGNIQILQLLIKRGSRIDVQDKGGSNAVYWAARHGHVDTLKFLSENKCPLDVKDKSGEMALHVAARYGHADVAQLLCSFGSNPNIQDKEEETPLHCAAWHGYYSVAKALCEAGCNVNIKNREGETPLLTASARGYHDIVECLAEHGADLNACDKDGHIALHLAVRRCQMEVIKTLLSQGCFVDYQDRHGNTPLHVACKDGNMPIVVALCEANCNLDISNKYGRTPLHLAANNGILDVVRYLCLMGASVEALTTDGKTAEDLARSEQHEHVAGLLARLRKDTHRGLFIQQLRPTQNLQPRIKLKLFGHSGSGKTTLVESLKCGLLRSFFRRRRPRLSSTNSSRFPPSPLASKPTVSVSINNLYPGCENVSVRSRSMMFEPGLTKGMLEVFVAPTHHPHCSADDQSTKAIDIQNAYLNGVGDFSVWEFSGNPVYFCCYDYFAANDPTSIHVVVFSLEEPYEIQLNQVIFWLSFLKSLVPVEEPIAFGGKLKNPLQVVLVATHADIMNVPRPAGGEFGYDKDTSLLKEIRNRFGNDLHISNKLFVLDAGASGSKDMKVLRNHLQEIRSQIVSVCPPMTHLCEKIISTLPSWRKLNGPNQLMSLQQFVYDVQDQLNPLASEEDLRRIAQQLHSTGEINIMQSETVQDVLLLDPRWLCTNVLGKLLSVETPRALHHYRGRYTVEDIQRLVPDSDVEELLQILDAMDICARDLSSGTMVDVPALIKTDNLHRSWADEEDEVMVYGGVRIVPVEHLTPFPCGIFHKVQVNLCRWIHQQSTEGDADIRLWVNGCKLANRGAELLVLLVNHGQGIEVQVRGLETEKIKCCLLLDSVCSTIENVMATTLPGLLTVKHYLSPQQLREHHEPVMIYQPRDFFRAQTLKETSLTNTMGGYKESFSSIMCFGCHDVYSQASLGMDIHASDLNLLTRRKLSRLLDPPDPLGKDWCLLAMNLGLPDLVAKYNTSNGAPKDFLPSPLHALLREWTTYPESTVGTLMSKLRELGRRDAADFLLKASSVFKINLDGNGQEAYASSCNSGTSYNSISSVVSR

**Q.** How did the IC50 [1] turn out when `N=c1cc2c(nn1CCCCCCCCCCC(=O)N1CCN(c3ncccn3)CC1)-c1ccccc1CC2` [MW01-070C] was run?
**A.** Its IC50 is 80 to 100 µM.

**Q.** And the “cytotoxicity in cell culture” value (cell culture)?
**A.** Its value is “no evidence of cytotoxicity”.

Source: patent US7888357B2, “Anti-inflammatory and protein kinase inhibitor compositions and related methods for downregulation of detrimental cellular responses and inhibition of cell death” (Northwestern University, priority 2001, dated 2011)
